{
  "source": "paper PMC5225172",
  "about": "(Cancer Chemotherapy and Pharmacology, 2016)",
  "key": {"clinical": {"experiment": "clinical", "conditions": "human, in vivo", "method": "Additional PK samples were collected at either 72, 96, or 120 h following the start of infusion. […] Blood pressure monitoring was performed every 5 min before dosing on cycle 1, day 1 until the observation of two consecutive measurements <150 mmHg (systolic) and <90 mmHg (diastolic). […] Serum samples for glucose analysis were collected immediately before the first infusion and in parallel with PK sampling through to 49 h post-dose. Glucose samples taken at 25 h post-dose were to be fasting, where possible and if deemed safe. Capillary blood glucose testing was to be performed for hyperglycemia management as determined appropriate by the investigator; hyperglycemia was defined as capillary blood glucose >200 mg/dL and was to be treated with short-acting insulin. Tumor measurement and disease assessment according to RECIST version 1.1 were conducted every two cycles by the investigator. This study was primarily a descriptive safety and tolerability trial, and no formal sample-size estimation was performed. Summary statistics were used for demographics, baseline characteristics, and PK parameters. Frequency tables were used for categorical variables."}, "[1]": {"tested_on": "patients with advanced solid tumors and non-Hodgkin's lymphomas", "conditions": "cited from earlier work"}, "[2]": {"tested_on": "advanced solid tumors and non-Hodgkin's lymphoma", "design": "method as in PMID 27672108", "conditions": "cited from earlier work"}, "[3]": {"experiment": "Phase I safety and tolerability: adverse events (NCI CTCAE v4.03), DLT, MTD", "conditions": "human, in vivo, iv", "method": "Dosing on days 8 and 15 was permitted within a window of ±1 day if necessary, and dosing was considered missed if delayed by more than 1 day. Dose delays of up to 2 weeks were permitted for day 1 of cycle 2 or later, although for days 8 and 15 of cycle 2 and subsequent cycles, dosing within a window of ±3 days was permitted, except for in cycle 3, where dosing was to be administered within ±1 day of days 8 and 15.\nPatients were enrolled into cohort 1 and were evaluated for the occurrence of a dose-limiting toxicity (DLT) as defined by the National Cancer Institute Common Terminology Criteria for Adverse Events version 4.03. […] Completion of cycle 1 in cohort 1 constituted study completion.\nProtocol-defined DLTs included non-hematologic adverse events of grade ≥3. Hyperglycemia defined as a DLT was to be determined based on serum glucose values. Hematologic DLTs were defined as grade 4 neutropenia for ≥3 days, an absolute neutrophil count <1000 with fever ≥38.5 °C, and grade 4 thrombocytopenia. Patients with non-hematologic DLTs were to discontinue study treatment.\n(§1) Screening comprised: provision of written, informed consent; demographics; baseline characteristics; concomitant medications; safety assessments (adverse events [defined as any new finding not present in the patient’s medical history, or a worsening of a prior medical history finding], vital signs, laboratory tests, physical examination, 12-lead electrocardiogram, multigated acquisition scan, or echocardiogram); tumor measurements by computed tomography or magnetic resonance imaging; disease assessment as defined by RECIST version 1.1; ophthalmologic examination; chest computed tomography; and ECOG PS assessment. The following assessments were also performed on cycle 1, day 1: safety; ECOG PS assessment; concomitant medications; blood samples for PK analysis; serum samples for glucose analysis; serum insulin; urinalysis; serum ketones; and post-dose echocardiogram. Safety assessments, blood pressure measurements, blood sampling for PK analysis, and urinalysis were also performed on days 8 and 15 of cycle 1."}, "[4]": {"tested_on": "advanced or refractory solid tumors", "experiment": "Tumor response and disease assessment by RECIST version 1.1", "type": "in vivo, human", "excerpt": "as §1\nAdditional PK samples were collected at either 72, 96, or 120 h following the start of infusion. PK samples were also collected on cycle 1, day 15 at 0, 0.5, 1, 1.5, 2, 3, 5, 8, 11, and 25 h following the start of infusion and on cycle 3, day 15 at 0, 0.5, 1, 1.5, 2, 3, 5, and 8 h following the start of infusion. Blood pressure monitoring was performed every 5 min before dosing on cycle 1, day 1 until the observation of two consecutive measurements <150 mmHg (systolic) and <90 mmHg (diastolic). […] Serum samples for glucose analysis were collected immediately before the first infusion and in parallel with PK sampling through to 49 h post-dose. Glucose samples taken at 25 h post-dose were to be fasting, where possible and if deemed safe. Capillary blood glucose testing was to be performed for hyperglycemia management as determined appropriate by the investigator; hyperglycemia was defined as capillary blood glucose >200 mg/dL and was to be treated with short-acting insulin. Tumor measurement and disease assessment according to RECIST version 1.1 were conducted every two cycles by the investigator."}},
  "note": "Entries after “also recorded” stand apart in the source; their conditions may differ.",
  "data": [
    {"smiles": "COc1c(OCCCN2CCOCC2)ccc2c1N=C(NC(=O)c1cnc(N)nc1)N1CCN=C21", "note": "[copanlisib, Copanlisib]", "values": [
      {"measurement": "half-life", "setting": "clinical; 0.4 mg/kg, Geometric mean terminal half-life", "value": "~32", "unit": "h"},
      {"measurement": "half-life", "setting": "clinical; 0.8 mg/kg, Geometric mean terminal half-life", "value": "~36", "unit": "h"},
      {"measurement": "half-life", "setting": "clinical; 0.8 mg/kg, Plasma half-life", "value": "32 to 36", "unit": "h"},
      {"measurement": "AUC", "setting": "clinical; iv, 0.4 mg/kg", "value": 1400, "unit": "ng·h/mL"},
      {"measurement": "AUC(0-t)", "setting": "clinical; iv, 0.4 mg/kg, AUC(0–8)", "value": 483, "unit": "ng·h/mL"},
      {"measurement": "AUC(0-t)", "setting": "clinical; iv, 0.4 mg/kg, AUC(0–25)", "value": 789, "unit": "ng·h/mL"},
      {"measurement": "Cmax", "setting": "clinical; iv, 0.4 mg/kg, C max", "value": 215, "unit": "ng/mL"},
      {"measurement": "half-life", "setting": "clinical; iv, 0.4 mg/kg, t 1/2 (half-life associated with terminal slope)", "value": 32.2, "unit": "h"},
      {"measurement": "Tmax", "setting": "clinical; iv, 0.4 mg/kg, tmax", "value": 1.02, "unit": "h"},
      {"measurement": "AUC", "setting": "clinical; iv, 0.8 mg/kg", "value": 2350, "unit": "ng·h/mL"},
      {"measurement": "AUC(0–25)", "setting": "clinical; iv, 0.8 mg/kg", "value": "1290 (10.1) µg·h/L"},
      {"measurement": "Tmax", "setting": "clinical; iv, 0.8 mg/kg", "value": "0.75 [0.48-1.05] h"},
      {"measurement": "AUC(0-t)", "setting": "clinical; iv, 0.8 mg/kg, AUC(0–8)", "value": 812, "unit": "ng·h/mL"},
      {"measurement": "AUC(0-t)", "setting": "clinical; iv, 0.8 mg/kg, AUC(0–25)", "value": 1280, "unit": "ng·h/mL"},
      {"measurement": "half-life", "setting": "clinical; iv, 0.8 mg/kg, t1/2 (half-life associated with terminal slope)", "value": 35.6, "unit": "h"},
      {"measurement": "Tmax", "setting": "clinical; iv, 0.8 mg/kg, tmax", "value": 0.53, "unit": "h"},
      {"measurement": "Grade 3 hypertension", "setting": "[1]; Patnaik et al. study", "value": 19, "unit": "%"},
      {"measurement": "Incidence of all-grade hypertension", "setting": "[1]; Patnaik et al. study", "value": 30, "unit": "%"},
      {"measurement": "Maximum tolerated dose (MTD)", "setting": "[1]; first-in-human Phase I study, non-Japanese patients, once weekly", "value": 0.8, "unit": "mg/kg"},
      {"measurement": "Patients with grade ≥3 elevated aminotransferase levels", "setting": "[1]; first-in-human study", "value": "< 10", "unit": "%"},
      {"measurement": "Time of hyperglycemia peak after the start of infusion", "setting": "[1]; first-in-human study", "value": "5 to 8", "unit": "h"},
      {"measurement": "Time of hypertension peak after the start of infusion", "setting": "[1]; first-in-human study", "value": "1 to 2", "unit": "h"},
      {"measurement": "Objective response rate", "setting": "[2]; 25 patients in solid-tumor expansion cohort treated at the MTD", "value": 12, "unit": "%"},
      {"measurement": "Disease control rate", "setting": "[2]; advanced solid-tumor expansion cohort", "value": 44, "unit": "%"},
      {"measurement": "Antitumor activity in patients with non-Hodgkin's lymphoma", "setting": "[2]; first-in-human study", "value": "seven out of nine patients"},
      {"measurement": "MTD at 28 days", "setting": "[3]", "value": 0.8, "unit": "mg/kg"},
      {"measurement": "Best overall response: Complete response", "setting": "[4]; Cohort 1, 0.4 mg/kg (n = 3)", "value": "0 n (%)"},
      {"measurement": "Best overall response: Partial response", "setting": "[4]; Cohort 1, 0.4 mg/kg (n = 3)", "value": "0 n (%)"},
      {"measurement": "Best overall response: Progressive disease (by proven measurement)", "setting": "[4]; Cohort 1, 0.4 mg/kg (n = 3)", "value": "2 (66.7) n (%)"},
      {"measurement": "Best overall response: Stable disease", "setting": "[4]; Cohort 1, 0.4 mg/kg (n = 3)", "value": "1 (33.3) n (%)"},
      {"measurement": "Overall disease control rate (complete response + partial response + stable disease)", "setting": "[4]; Cohort 1, 0.4 mg/kg (n = 3)", "value": "1 (33.3) n (%)"},
      {"measurement": "Overall response rate (complete response + partial response)", "setting": "[4]; Cohort 1, 0.4 mg/kg (n = 3)", "value": "0 n (%)"},
      {"measurement": "Best overall response: Complete response", "setting": "[4]; Cohort 2, 0.8 mg/kg (n = 7)", "value": "0 n (%)"},
      {"measurement": "Best overall response: Partial response", "setting": "[4]; Cohort 2, 0.8 mg/kg (n = 7)", "value": "0 n (%)"},
      {"measurement": "Best overall response: Progressive disease (by proven measurement)", "setting": "[4]; Cohort 2, 0.8 mg/kg (n = 7)", "value": "4 (57.1) n (%)"},
      {"measurement": "Best overall response: Stable disease", "setting": "[4]; Cohort 2, 0.8 mg/kg (n = 7)", "value": "3 (42.9) n (%)"},
      {"measurement": "Overall disease control rate (complete response + partial response + stable disease)", "setting": "[4]; Cohort 2, 0.8 mg/kg (n = 7)", "value": "3 (42.9) n (%)"},
      {"measurement": "Overall response rate (complete response + partial response)", "setting": "[4]; Cohort 2, 0.8 mg/kg (n = 7)", "value": "0 n (%)"},
      {"measurement": "Best overall response: Complete response", "setting": "[4]; Total (n = 10)", "value": "0 n (%)"},
      {"measurement": "Best overall response: Partial response", "setting": "[4]; Total (n = 10)", "value": "0 n (%)"},
      {"measurement": "Best overall response: Progressive disease (by proven measurement)", "setting": "[4]; Total (n = 10)", "value": "6 (60.0) n (%)"},
      {"measurement": "Best overall response: Stable disease", "setting": "[4]; Total (n = 10)", "value": "4 (40.0) n (%)"},
      {"measurement": "Overall disease control rate (complete response + partial response + stable disease)", "setting": "[4]; Total (n = 10)", "value": "4 (40.0) n (%)"},
      {"measurement": "Overall response rate (complete response + partial response)", "setting": "[4]; Total (n = 10)", "value": "0 n (%)"},
      {"measurement": "Disease control rate", "setting": "[4]; cohort 1, 0.4 mg/kg", "value": 33.3, "unit": "%"},
      {"measurement": "Median time to progression", "setting": "[4]; cohort 1, 0.4 mg/kg, 95% CI 50–77", "value": 52, "unit": "days"},
      {"measurement": "Time to progression, single patient", "setting": "[4]; cohort 1, stable disease as best response", "value": 77, "unit": "days"},
      {"measurement": "Disease control rate", "setting": "[4]; cohort 2, 0.8 mg/kg", "value": 42.9, "unit": "%"},
      {"measurement": "Median time to progression", "setting": "[4]; cohort 2, 0.8 mg/kg, 95% CI 21–not estimated", "value": 53, "unit": "days"},
      {"measurement": "Time to progression, single patient (censored)", "setting": "[4]; cohort 2, gastrointestinal stromal tumor, stable disease, discontinued for thrombocytopenia", "value": 176, "unit": "days"},
      {"measurement": "Time to progression, single patient", "setting": "[4]; cohort 2, stable disease as best response", "value": 82, "unit": "days"},
      {"measurement": "Time to progression, single patient (censored)", "setting": "[4]; cohort 2, stable disease, discontinued because of grade 3 diarrhea", "value": 50, "unit": "days"},
      {"measurement": "Rate of progression-free survival", "setting": "[4]; overall, after 1 month", "value": "0.80 (95% CI 0.41–0.95)"},
      {"measurement": "Rate of progression-free survival", "setting": "[4]; overall, after 2 months", "value": "0.35 (95% CI 0.08–0.64)"},
      {"measurement": "Rate of progression-free survival", "setting": "[4]; overall, after 3 months", "value": "0.12 (95% CI 0.01–0.40)"},
      {"measurement": "Median time to progression", "setting": "[4]; overall, 95% CI 21–82", "value": 52, "unit": "days"},
      {"measurement": "Complete or partial response", "setting": "[4]; ten patients", "value": "No patients achieved a complete or partial response; also recorded: none experienced a complete or partial response"},
      {"measurement": "Disease control rate", "setting": "[4]; ten patients", "value": 40, "unit": "%"},
      {"measurement": "Progressive disease as best response", "setting": "[4]; ten patients", "value": 60.0, "unit": "%"},
      {"measurement": "Stable disease as best response", "setting": "[4]; ten patients", "value": 40.0, "unit": "%"}
    ]}
  ]
}
